Earlier results on one molecule are cited in patent US20090318295A1, “Solid herbicidal formulation of N-(phosphono-methyl)glycine and process for its preparation” (priority 2002, published 2009).

≈ marks a conversion by molar mass, not a printed value.

`O=C(O)CNCP(=O)(O)O` [Glyphosate, N-(phosphonomethyl)glycine]: the solubility in water was 12 mg/mL (≈ 71 mM).
